{"source": "patent US10653689B2", "about": "“Combination-based treatment method” (priority 2014, dated 2020)", "test_system": "BRCA1-deficient human breast cancer cell line, MX-1", "experiment": "Tumor growth delay in MX-1 human breast cancer model in mice", "format": "in vivo", "set-up": "Median TTE: unit not given beside the values", "experimental": "Cancerous cells from the BRCA1-deficient human breast cancer cell line, MX-1, were injected subcutaneously in female mice. […]\nAnimal weight, clinical observations and tumor volume were monitored twice/week until the endpoint (2000 mm^3 of tumor volume or Day 88) was met.\nEfficacy was measured by tumor growth delay and regression response rate.", "key": {"[1]": {"conditions": "rucaparib 30 mg/kg po q.d. × 21"}, "[2]": {"conditions": "rucaparib 150 mg/kg po q.d. × 21"}}, "data": [{"molecule": "CNCc1ccc(-c2[nH]c3cc(F)cc4c3c2CCNC4=O)cc1", "note": "[rucaparib]", "values": [{"measurement": "Median TTE", "setting": "[1]", "result": 39}, {"measurement": "Regressions CR", "setting": "[1]", "result": 0, "unit": "%"}, {"measurement": "Regressions PR", "setting": "[1]", "result": 0, "unit": "%"}, {"measurement": "Regressions TFS", "setting": "[1]", "result": 0, "unit": "%"}, {"measurement": "Statistical Results For Groups Tested", "setting": "[1]", "result": "Significant against vehicle (p ≤ 0.05)"}, {"measurement": "T-C", "setting": "[1]", "result": 14, "unit": "days"}, {"measurement": "TGD", "setting": "[1]", "result": 56, "unit": "%"}, {"measurement": "Median TTE", "setting": "[2]", "result": 43}, {"measurement": "Regressions CR", "setting": "[2]", "result": 0, "unit": "%"}, {"measurement": "Regressions PR", "setting": "[2]", "result": 0, "unit": "%"}, {"measurement": "Regressions TFS", "setting": "[2]", "result": 0, "unit": "%"}, {"measurement": "Statistical Results For Groups Tested", "setting": "[2]", "result": "Significant against vehicle (p ≤ 0.01)"}, {"measurement": "T-C", "setting": "[2]", "result": 18, "unit": "days"}, {"measurement": "TGD", "setting": "[2]", "result": 73, "unit": "%"}, {"measurement": "efficacy (mean tumor volumes, FIG. 1)", "setting": "single agent, at both the 30 mg/kg and 150 mg/kg dosages", "result": "only marginally effective"}]}, {"molecule": "pentaerythritol-based multi-arm polymer conjugate of irinotecan [PBMAPCI]", "values": [{"measurement": "Median TTE", "setting": "PBMAPCI 10 mg/kg iv qwk × 4", "result": 57}, {"measurement": "Regressions CR", "setting": "PBMAPCI 10 mg/kg iv qwk × 4", "result": 10, "unit": "%"}, {"measurement": "Regressions PR", "setting": "PBMAPCI 10 mg/kg iv qwk × 4", "result": 0, "unit": "%"}, {"measurement": "Regressions TFS", "setting": "PBMAPCI 10 mg/kg iv qwk × 4", "result": 10, "unit": "%"}, {"measurement": "Statistical Results For Groups Tested", "setting": "PBMAPCI 10 mg/kg iv qwk × 4", "result": "Significant against vehicle (p ≤ 0.001)"}, {"measurement": "T-C", "setting": "PBMAPCI 10 mg/kg iv qwk × 4", "result": 32, "unit": "days"}, {"measurement": "TGD", "setting": "PBMAPCI 10 mg/kg iv qwk × 4", "result": 129, "unit": "%"}, {"measurement": "Median TTE", "setting": "PBMAPCI 50 mg/kg iv qwk × 4", "result": 88}, {"measurement": "Regressions CR", "setting": "PBMAPCI 50 mg/kg iv qwk × 4", "result": 100, "unit": "%"}, {"measurement": "Regressions PR", "setting": "PBMAPCI 50 mg/kg iv qwk × 4", "result": 0, "unit": "%"}, {"measurement": "Regressions TFS", "setting": "PBMAPCI 50 mg/kg iv qwk × 4", "result": 100, "unit": "%"}, {"measurement": "Statistical Results For Groups Tested", "setting": "PBMAPCI 50 mg/kg iv qwk × 4", "result": "Significant against vehicle (p ≤ 0.001)"}, {"measurement": "T-C", "setting": "PBMAPCI 50 mg/kg iv qwk × 4", "result": 63, "unit": "days"}, {"measurement": "TGD", "setting": "PBMAPCI 50 mg/kg iv qwk × 4", "result": 252, "unit": "%"}]}]}
